# Data taken from patent US10550150B2, “Short-chain peptides as Kappa (κ) opioid receptors (KOR) agonist” (CADILA HEALTHCARE LIMITED, priority 2015, dated 2020).
# Read-outs that look alike come from different tables or passages of the source. *1 amine or outer side, *2 acyl side, *3 side chain or, on linkers, in order; H or OH if unused. Where a SMILES comes first, the peptide text is derived from it. [ ]: non-standard residue; d: D form. The star is where a group is joined. X26 = O=C(CN1CC2CC(C1)N2*)OCc1ccccc1; X9 = O=C(CN1CC2CC(C1)N2[*:1])[*:2]; X28 = O=C(O)CCN(CCC(=O)O)*; X4 = O=C(O)CN1CC2CC(C1)N2*; Ac6c = NC1(C(=O)O)CCCCC1; Ac5c = NC1(C(=O)O)CCCC1; X10 = OCCN(CCO)*
# Assays:
# [1] = biological target: T1, Kappa (κ) opioid receptors (KOR) (Homo sapiens, UniProt P41145); assay: In vitro KOR agonistic activity, cAMP based functional assay; assay type: cell-based
# T1 construct: host or cells: unnamed cells grown in Ham's F-12 medium
# Description: a) In Vitro (EC50) Determination, Using cAMP Based Functional Assay:
# In vitro, KOR agonistic activity of test compounds were assessed using cAMP based functional assay. A 96-well plate was seeded at the density of 30,000 cells/well in 100 μl/well of complete Ham's F-12 medium. After seeding, the plates were incubated overnight at 37° C., 5% CO2, in CO2 Incubator. Overnight medium was discarded and plate washed with 100 μl/well of sterile PBS. Then 90 μl of 0.1 mM IBMX containing 0.5% Fatty acid free BSA in plain HamsF12 was added to each well. This was allowed to incubate for 30 minutes at 37° C., 5% CO2. Forskolin 20 μM in 0.5% Fatty acid free BSA was added to each well and allowed to incubate at room temperature for 5 minutes. Dilution of test compounds was made at 200× in DMSO and then diluted 1:10 times in BSA containing plain HamsF12. Agonist (test compounds, in 10% DMSO) was added to each well (5 μl) and allowed to incubate for 20 minutes at 37° C., 5% CO2. After 20 minutes, media was aspirated from the wells and the wells were washed with 1×PBS. Cell lysis buffer 4× (Arbor Assays, Cat # X074-60 ML) was diluted 1:4 in MilliQ and 90 μl of this buffer was added per well. Cells were allowed to shake at 500 rpm, room temperature for 20 minutes. Cell lysate was collected in 1.5 ml eppendorf tubes and centrifuged at 13.2 k rpm, 4° C. for 15 minutes. 50 μl of the supernatant of cell lysate was then used for cAMP estimation by cAMP direct ELISA kit (Arbor Assays, Cat # K019-H5).
# [2] = tested on: acetic acid induced writhing; assay: Acetic acid-induced writhing model (antinociceptive activity); assay type: in vivo; settings: acetic acid induced pain model, ICR mice (n = 6), iv
# Description: In Vivo (ED50) Determination, Using Acetic Acid-Induced Writhing Model
# The acetic acid induced writhing assay can detect antinociceptive activity for opioid drug, acting at peripheral, spinal and supraspinal levels. Animals were fasted 12 to 16 h prior testing. The nociceptive response (abdominal contractions or writhes) was induced by diluted acetic acid (0.6%, 10 ml/kg, for mice and 2.5%, 0.5 ml/rat) administered intraperitoneally (i.p.) at time 0 min.
# In mouse experiments, compounds were administered orally, intravenously (i.v.) or subcutaneously (s.c.). To determine the antinociceptive potency and efficacy, full dose-response curves were constructed with test compounds, given 5 min prior to acetic acid administration. The duration of action was determined by using increasing pretreatment time (5, 60, and 120 min.), prior to acetic acid administration, for a sub-maximally effective dose defined during the dose-response curve study. In rat experiments, compounds were administered orally, intravenously (i.v.) or subcutaneously (s.c.), 15 min prior to acetic acid administration. The number of writhes was counted over the 15 min period following acetic acid administration. A writhe is defined as a constriction of the abdominal area, often with extension of the hind legs. Percentage maximum possible effect (MPE) was calculated as: % MPE=100−[(No. of writhes in test compound treated animal/No. of writhes in vehicle treated animal)]×100. ED50 dose was determined using GraphPad Prism.
# [3] = cAMP based functional assay, forskolin stimulated, read-out: In-vitro EC50
# [4] = refers to Table-4, read-out: in vitro KOR agonistic activity EC50
# T1 sequence (P41145 whole entry): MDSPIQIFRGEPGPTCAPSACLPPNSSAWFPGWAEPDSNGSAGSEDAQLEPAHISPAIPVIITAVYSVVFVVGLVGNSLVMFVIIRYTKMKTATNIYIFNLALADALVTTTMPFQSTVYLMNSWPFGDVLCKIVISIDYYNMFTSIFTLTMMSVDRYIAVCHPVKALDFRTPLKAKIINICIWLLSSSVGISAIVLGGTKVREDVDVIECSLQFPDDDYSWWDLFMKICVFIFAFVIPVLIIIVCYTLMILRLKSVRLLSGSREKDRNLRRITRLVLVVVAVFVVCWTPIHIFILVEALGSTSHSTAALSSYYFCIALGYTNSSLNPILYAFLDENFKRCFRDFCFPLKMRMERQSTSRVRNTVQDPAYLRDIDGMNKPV
Structure (SMILES),"EC50 [1, 3] [nM]","EC50 [1, 4] [nM]",In-vivo ED50 [2] [mpk]
CC(C)CC(NC(=O)C(Cc1ccccc1)NC(=O)C(N)Cc1ccccc1)C(=O)NC(CCCCN)C(=O)N1CC2=C(CN(CC(=O)O)C2)C1 (centres unmarked) [Compound 4],0.047,< 0.1,
CC(C)CC(NC(=O)C(Cc1ccccc1)NC(=O)C(N)Cc1ccccc1)C(=O)NC(CCCCN)C(=O)N1CC2=C(CN(CC(N)=O)C2)C1 (centres unmarked) [Compound 5],0.009,< 0.1,0.07
CC(C)CC(NC(=O)C(Cc1ccccc1)NC(=O)C(N)Cc1ccccc1)C(=O)NC(CCCCN)C(=O)N1CC2=C(CN(C(=O)CO)C2)C1 (centres unmarked) [Compound 10],0.4,,
CC(C)CC(NC(=O)C(Cc1ccccc1)NC(=O)C(N)Cc1ccccc1)C(=O)NC(CCCCN)C(=O)N1CC2CNCC2C1 (centres unmarked) [Compound 13],,,1
CCOC(=O)CN1CC2CN(C(=O)C(CCCCN)NC(=O)C(CC(C)C)NC(=O)C(Cc3ccccc3)NC(=O)C(N)Cc3ccccc3)CC2C1 (centres unmarked) [Compound 15],0.007,< 0.1,0.1
CC(C)CC(NC(=O)C(Cc1ccccc1)NC(=O)C(N)Cc1ccccc1)C(=O)NC(CCCCN)C(=O)N1CC2CN(CC(=O)O)CC2C1 (centres unmarked) [Compound 16],0.004,< 0.1,0.1
"CC(C)CC(NC(=O)C(Cc1ccccc1)NC(=O)C(N)Cc1ccccc1)C(=O)NC(CCCCN)C(=O)N1CC2CN(CC(N)=O)CC2C1 (stereo not drawn) [Compound 17, H2N-Phe-Phe-Leu-Lys-Hpp-CONH2]",0.38,,
CC(C)CC(NC(=O)C(Cc1ccccc1)NC(=O)C(N)Cc1ccccc1)C(=O)NC(CCCCN)C(=O)N1CC2CN(CCO)CC2C1 (centres unmarked) [Compound 18],,,1
CC(C)CC(NC(=O)C(Cc1ccccc1)NC(=O)C(N)Cc1ccccc1)C(=O)NC(CCCCN)C(=O)N1CC2CN(S(C)(=O)=O)CC2C1 (centres unmarked) [Compound 19],,,0.28
CC(C)CC(NC(=O)C(Cc1ccccc1)NC(=O)C(N)Cc1ccccc1)C(=O)NC(CCCCN)C(=O)N1CC2CC(=O)CC2C1 (centres unmarked) [Compound 23],0.085,,
CC(C)CC(NC(=O)C(Cc1ccccc1)NC(=O)C(N)Cc1ccccc1)C(=O)NC(CCCCN)C(=O)N1CC2CC(CN)CC2C1 (centres unmarked) [Compound 26],0.22,,
CCOC(=O)C1CC2CN(C(=O)C(CCCCN)NC(=O)C(CC(C)C)NC(=O)C(Cc3ccccc3)NC(=O)C(N)Cc3ccccc3)CC2C1 (centres unmarked) [Compound 27],0.009,,
CC(C)CC(NC(=O)C(Cc1ccccc1)NC(=O)C(N)Cc1ccccc1)C(=O)NC(CCCCN)C(=O)N1C2CNCC1C2 (centres unmarked) [Compound 32],0.02,,
CC(C)CC(NC(=O)C(Cc1ccccc1)NC(=O)C(N)Cc1ccccc1)C(=O)NC(CCCCN)C(=O)N1C2CC1CN(C)C2 (centres unmarked) [Compound 33],0.009,,
"CC(C)CC(NC(=O)C(Cc1ccccc1)NC(=O)C(N)Cc1ccccc1)C(=O)NC(CCCCN)C(=O)N1C2CC1CN(Cc1ccccc1)C2 (centres unmarked) [Compound 34, N-(6-amino-1-(3-benzyl-3,6-diazabicyclo[3.1.1]heptan-6-yl)-1-oxohexan-2-yl)-2-(2-(2-amino-3-phenylpropanamido)-3-phenylpropanamido)-4-methylpentanamide]",0.088,,
CCOC(=O)CN1CC2CC(C1)N2C(=O)C(CCCCN)NC(=O)C(CC(C)C)NC(=O)C(Cc1ccccc1)NC(=O)C(N)Cc1ccccc1 (centres unmarked) [Compound 35],0.01,< 0.1,0.03
CC(C)CC(NC(=O)C(Cc1ccccc1)NC(=O)C(N)Cc1ccccc1)C(=O)NC(CCCCN)C(=O)N1C2CC1CN(CC(=O)O)C2 (centres unmarked) [Compound 36],0.015,< 0.1,0.04
CC(C)CC(NC(=O)C(Cc1ccccc1)NC(=O)C(N)Cc1ccccc1)C(=O)NC(CCCCN)C(=O)N1C2CC1CN(CC(N)=O)C2 (centres unmarked) [Compound 37],0.083,< 0.1,0.08
CC(C)CC(NC(=O)C(Cc1ccccc1)NC(=O)C(N)Cc1ccccc1)C(=O)NC(CCCCN)C(=O)N1C2CC1CN(CCO)C2 (centres unmarked) [Compound 38],,,0.04

Structure (SMILES),"EC50 [1, 3] [nM]","EC50 [1, 4] [nM]",In-vivo ED50 [2] [mpk]
CC(C)CC(NC(=O)C(Cc1ccccc1)NC(=O)C(N)Cc1ccccc1)C(=O)NC(CCCCN)C(=O)N1C2CC1CN(S(C)(=O)=O)C2 (centres unmarked) [Compound 39],,,0.18
NCCCCC(NC(=O)C1(NC(=O)C(Cc2ccccc2)NC(=O)C(N)Cc2ccccc2)CCCCC1)C(=O)N1C2CC1CN(CC(=O)O)C2 (centres unmarked) [Compound 41] (H-FF[Ac6c]K-X4; configuration not given here),0.015,,
NCCCCC(NC(=O)C1(NC(=O)C(Cc2ccccc2)NC(=O)C(N)Cc2ccccc2)CCCC1)C(=O)N1C2CC1CN(CC(=O)O)C2 (centres unmarked) [Compound 42] (H-FF[Ac5c]K-X4; configuration not given here),,,0.23
CC(C)CC(NC(=O)C(Cc1ccccc1)NC(=O)C(N)Cc1ccccc1)C(=O)NC(CCCCN)C(=O)N1C2CC1CN(CC(=O)OCc1ccccc1)C2 (centres unmarked) [Compound 49],0.016,,
NCCCCC(NC(=O)C1(NC(=O)C(Cc2ccccc2)NC(=O)C(N)Cc2ccccc2)CCCCC1)C(=O)N1C2CC1CN(CC(=O)OCc1ccccc1)C2 (centres unmarked) [Compound 50] (H-FF[Ac6c]K-X26; configuration not given here),0.008,,
CC(C)CC(NC(=O)C(Cc1ccccc1)NC(=O)C(N)Cc1ccccc1)C(=O)NC(CCCCN)C(=O)N1CC2CC(C1)N2 (centres unmarked) [Compound 51],0.012,,
CC(C)CC(NC(=O)C(Cc1ccccc1)NC(=O)C(C)(N)Cc1ccccc1)C(=O)NC(CCCCN)C(=O)N1CC2CC(C1)N2CC(=O)O (centres unmarked) [Compound 57],,,0.26
CC(C)CC(NC(=O)C(Cc1ccccc1)NC(=O)C(N)Cc1ccccc1)C(=O)NC(CCCCN)C(=O)N1CC2CC1CN2Cc1ccccc1 (centres unmarked) [Compound 62],,,0.31
CC(C)CC(NC(=O)C(Cc1ccccc1)NC(=O)C(N)Cc1ccc(O)cc1)C(=O)NC(CCCCN)C(=O)N1C2CC1CN(CC(=O)O)C2 (centres unmarked) [Compound 90] (H-YFLK-X4; configuration not given here),,,0.98
NCCCCC(NC(=O)C1(NC(=O)C(Cc2ccccc2)NC(=O)C(N)Cc2ccc(O)cc2)CCCCC1)C(=O)N1C2CC1CN(CC(=O)O)C2 (centres unmarked) [Compound 92] (H-YF[Ac6c]K-X4; configuration not given here),0.018,,
CC(C)CC(NC(=O)C(Cc1ccccc1)NC(=O)C(N)Cc1ccccc1)C(=O)NC(CCCCN)C(=O)N1C2CC1CN(C(=O)CCCCCN)C2 (centres unmarked) [Compound 93],,,0.11
CC(C)CC(NC(=O)C(Cc1ccccc1)NC(=O)C(N)Cc1ccccc1)C(=O)NC(CCCCN)C(=O)N1C2CC1CN(C(=O)C(N)CO)C2 (centres unmarked) [Compound 97],,,0.42
CC(C)CC(NC(=O)C(Cc1ccccc1)NC(=O)C(N)Cc1ccccc1)C(=O)NC(CCCCN)C(=O)N1C2CC1CN(CC(=O)N(CC(=O)O)CC(=O)O)C2 (centres unmarked) [Compound 99],0.016,,
CC(C)CC(NC(=O)C(Cc1ccccc1)NC(=O)C(N)Cc1ccccc1)C(=O)NC(CCCCN)C(=O)N1C2CC1CN(CC(=O)N(CCC(=O)O)CCC(=O)O)C2 (centres unmarked) [Compound 100] (H-FFLK[X9]-X28; configuration not given here),0.015,,
CC(C)CC(NC(=O)C(Cc1ccccc1)NC(=O)C(N)Cc1ccccc1)C(=O)NC(CCCCN)C(=O)N1C2CC1CN(CC(=O)N(CCO)CCO)C2 (centres unmarked) [Compound 101] (H-FFLK[X9]-X10; configuration not given here),0.012,,
CC(C)CC(NC(=O)C(Cc1ccccc1)NC(=O)C(N)Cc1ccccc1)C(=O)NC(CCCCN)C(=O)N1C2CC1CN(C(=O)CN(CC(=O)O)CC(=O)O)C2 (centres unmarked) [Compound 102],0.012,,
CC(C)CC(NC(=O)C(Cc1ccccc1)NC(=O)C(N)Cc1ccccc1)C(=O)NC(CCCCN)C(=O)N1C2CC1CN(CC(=O)NC(CCC(=O)O)C(=O)O)C2 (centres unmarked) [Compound 104] (H-FFLK[X9]E-OH; configuration not given here),,,0.07
CC(C)CC(NC(=O)C(Cc1ccccc1)NC(=O)C(N)Cc1ccccc1)C(=O)NC(CCCCN)C(=O)N1C2CCC1CC(O)C2 (centres unmarked) [Compound 105],0.002,,
